One experiment has as its target ERK protein (Mus musculus, UniProt P63085). Description: TdF (Temperature Dependence Fluorescence, thermal shift) assay for ERK. The note with it: 3 μM ERK protein, uncertainty estimated ±50%, read-out: Kd TdF. It counts as binding.
The target in experiment [1] is fully phosphorylated, active Mouse ERK2 protein (Mus musculus (Mouse), UniProt P63085). Description: Active ERK2 (aERK) IMAP assay, condition 1. The format is biochemical. The note with it: aERK assay condition 1, 30 μM ATP. The protocol: Active ERK2 (aERK) Assay: (Unless Indicated Otherwise, the Data Provided for aERK was obtained using Condition 1)
Activated ERK2 activity was also determined in the IMAP assay format using the procedure outlined above. […] Reactions proceeded for 30 minutes before termination by addition of 60 μl IMAP detection beads in binding buffer. Plates were read as above after 30 minute binding equilibration.

In experiment [2] the target is inactive ERK2 (unphosphorylated Mouse ERK2 protein) (Mus musculus (Mouse), UniProt P63085). Description: Coupled ERK2 (cERK) assay, coupled MEK1/ERK2 IMAP assay. The note with it: 30 μM ATP. The format is biochemical. The procedure: 14 μl of kinase buffer (10 mM Tris.HCl pH 7.2, 10 mM MgCl2, 0.01% Tween-20, 1 mM DTT) containing 0.4 ng unphosphorylated Mouse ERK2 protein was added to each well of a black 384-well assay plate. […] DMSO concentration during initial incubation is 6.7%. ERK2 activity was determined to be insensitive to DMSO concentrations up to 20%. ERK2 was then activated and it's kinase activity measured by the addition of 10 μl kinase buffer with the following components (final concentration per reaction): 2 ng active (phosphorylated) human MEK1 protein and 4 μM (total) ERK2 IMAP substrate peptides (3.9 μM unlabeled […]-CONH2 and 100 nM […](5-carboxyfluorescein)-CONH2) and 30 μM ATP. DMSO concentration during ERK activation was 4%. After one hour, reactions were terminated by addition of 60 μl IMAP detections beads in binding buffer (Molecular Devices). Binding was allowed to equilibrate for 30 minutes before reading the plate on an LJL Analyst Fluorescence Polarization plate reader. […] Active compounds were reconfirmed in an independent assay.
inactive ERK2 (unphosphorylated Mouse ERK2 protein), sequence (P63085 whole entry): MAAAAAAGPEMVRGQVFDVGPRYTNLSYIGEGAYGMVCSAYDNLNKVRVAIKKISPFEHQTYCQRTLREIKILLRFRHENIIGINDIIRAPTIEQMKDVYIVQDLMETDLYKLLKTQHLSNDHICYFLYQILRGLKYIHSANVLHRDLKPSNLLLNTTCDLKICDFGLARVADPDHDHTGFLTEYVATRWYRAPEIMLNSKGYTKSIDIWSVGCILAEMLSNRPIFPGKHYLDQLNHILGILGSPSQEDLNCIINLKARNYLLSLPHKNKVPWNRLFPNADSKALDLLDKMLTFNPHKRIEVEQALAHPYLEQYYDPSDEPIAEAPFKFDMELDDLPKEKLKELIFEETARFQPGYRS

fully phosphorylated, active Mouse ERK2 protein, sequence (P63085 whole entry): as above
ERK protein, sequence (P63085 2-358 limits assumed): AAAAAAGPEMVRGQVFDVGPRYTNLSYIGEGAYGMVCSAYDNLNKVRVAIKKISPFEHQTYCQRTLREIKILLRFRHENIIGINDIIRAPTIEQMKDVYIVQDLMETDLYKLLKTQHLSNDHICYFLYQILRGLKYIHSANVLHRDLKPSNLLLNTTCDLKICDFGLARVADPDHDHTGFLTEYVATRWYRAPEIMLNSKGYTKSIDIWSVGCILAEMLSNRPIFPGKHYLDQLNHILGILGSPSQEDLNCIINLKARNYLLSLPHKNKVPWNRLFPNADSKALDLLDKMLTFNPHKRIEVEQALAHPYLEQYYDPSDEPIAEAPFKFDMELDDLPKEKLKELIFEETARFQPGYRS

A word on the Kd: it is a measure of binding affinity in units of concentration. The IC50 is the concentration needed to halve the response being measured. Read a high IC50 as weaker potency in that assay. Turning to `O=C(N[C@H]1CCCN(Cc2ccccc2F)C1)c1ccc2[nH]nc(-c3ccncc3)c2c1`, at ERK protein, the Kd was 38 nM. The IC50 in experiment [1] stood at 224 nM; in experiment [2] it was 166 nM.
The matching figures for `O=C(NC1CCCN(Cc2ccccc2F)C1)c1ccc2[nH]nc(-c3ccncc3)c2c1` (stereo not drawn): 0.3 nM, 28.1 nM and 14.4 nM.
On the same counts, the results for `O=C(NC1CCCN(Cc2ccccc2)C1)c1ccc2[nH]nc(-c3ccncc3)c2c1` (stereo not drawn) are 0.6 nM, 32.5 nM and 16.6 nM.
The matching figures for `CC(C)Oc1ccc(-c2n[nH]c3ccc(C(=O)NC4CCCN(Cc5ccccc5F)C4)cc23)cn1` (stereo not drawn): 2.9 nM, 769 nM and 307 nM.
As to `O=C(NC1CCCN(Cc2ccccc2)C1)c1ccc2[nH]nc(-c3ccc4c(c3)CCO4)c2c1` (stereo not drawn), the dissociation constant Kd at ERK protein was 1.4 nM. For the same compound, the values for the IC50 in experiment [1] and in experiment [2] were 134 nM and 172 nM, respectively.
The matching figures for `O=C(NC1CCCN(Cc2ccccc2F)C1)c1ccc2[nH]nc(-c3ccc4c(c3)CCO4)c2c1` (stereo not drawn): 2.6 nM, 284 nM and 231 nM.
Regarding `CC(c1ccccc1)N1CCC[C@@H](NC(=O)c2ccc3[nH]nc(-c4ccncc4)c3c2)C1` (stereo partly drawn), on ERK protein, the dissociation constant Kd is 804 nM. Further, the IC50 in experiment [1] was determined as 475 nM; in experiment [2] it was 763 nM.
On the same counts, the results for `CN1CC(NC(=O)c2ccc3[nH]nc(-c4ccncc4)c3c2)CC(c2ccccc2)C1` (stereo not drawn) [drawing 158, N-(1-methyl-5-phenylpiperidin-3-yl)-3-(pyridin-4-yl)-1H-indazole-5-carboxamide] are 1.4 nM, 2.6 nM and 7.4 nM.

The record behind these values is patent publication US8999957B2, “Heterocyclic compounds as ERK inhibitors” (Merck Sharp & Dohme Corp., priority 2010, dated 2015).
